Reference: PubChem BioAssay (NCI)
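Assay format: 96-well plates, 48-hour exposure. GI50 marks 50% less growth. TGI marks complete inhibition of growth.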

How the values were obtained:
Test in all cases: DTP human tumour cell line panel, 48 h
A549 NSCLC = system: A549 NSCLC
HCT-116 colon = system: HCT-116 colon
K-562 leukemia = system: K-562 leukemia
M14 melanoma = system: M14 melanoma
NCI-H522 lung = system: NCI-H522 lung
SF-268 CNS = system: SF-268 CNS
SK-MEL-28 melanoma = system: SK-MEL-28 melanoma
TK-10 renal = system: TK-10 renal
UACC-257 melanoma = system: UACC-257 melanoma
UO-31 renal = system: UO-31 renal

| Compound | GI50 (A549 NSCLC) [µM] | TGI (A549 NSCLC) [µM] | GI50 (HCT-116 colon) [µM] | TGI (HCT-116 colon) [µM] | GI50 (K-562 leukemia) [µM] | TGI (K-562 leukemia) [µM] | GI50 (M14 melanoma) [µM] | TGI (M14 melanoma) [µM] | GI50 (NCI-H522 lung) [µM] | TGI (NCI-H522 lung) [µM] | GI50 (SF-268 CNS) [µM] | TGI (SF-268 CNS) [µM] | GI50 (SK-MEL-28 melanoma) [µM] | TGI (SK-MEL-28 melanoma) [µM] | GI50 (TK-10 renal) [µM] | TGI (TK-10 renal) [µM] | GI50 (UACC-257 melanoma) [µM] | TGI (UACC-257 melanoma) [µM] | GI50 (UO-31 renal) [µM] | TGI (UO-31 renal) [µM] |
| --- | --- | --- | --- | --- | --- | --- | --- | --- | --- | --- | --- | --- | --- | --- | --- | --- | --- | --- | --- | --- |
| CC[C@]12C=CCN3CC[C@@]4(c5ccc(OC)cc5N(C)[C@H]4[C@@](O)(C(=O)OC)[C@@H]1OC(=O)CCCC[P+](c1ccccc1)(c1ccccc1)c1ccccc1)[C@@H]32 | 1.86 | 10.2 | 0.777 | 12 | 0.789 | 11.4 | 1.45 | 4.13 | 0.295 | 1.77 | 0.644 | 3.98 | 0.52 | 1.84 | 2.79 | 9.66 | 0.279 | 1.09 | 12.8 | 26.4 |
| CCOc1cccc2sc(N)nc12 | – | > 100 | – | > 100 | – | > 100 | – | > 100 | – | > 100 | – | > 100 | – | > 100 | – | > 100 | – | > 100 | – | > 100 |
| O=C1C2=C(C(=O)c3c(O)ccc(O)c31)N(c1cccnc1)Cc1ccccc1O2 | 2.85 | 19.9 | 0.0923 | 0.324 | 0.0752 | – | 0.26 | 0.771 | 0.0288 | 0.112 | 0.65 | 2 | 0.266 | 0.644 | 0.27 | 0.983 | 0.399 | 1.39 | 0.182 | 0.398 |
| CCCCCCCCCCCCCCCCSS(C)(=O)=O | – | > 80.3 | – | 43.5 | – | 27.9 | – | 25.2 | – | 11 | – | > 35.9 | – | 25.4 | – | 52.9 | – | > 93.5 | – | 35.7 |
| C=CCNC(=O)ON1C(=O)CCC1=O | – | > 100 | – | > 100 | – | > 100 | – | > 100 | – | > 100 | – | > 100 | – | > 100 | – | > 100 | – | > 100 | – | > 100 |
| NC(N)=NS(=O)(=O)c1ccc(NC(=O)c2cccn3c(=O)c4ccccc4nc23)cc1 | – | > 100 | – | > 100 | – | 90.1 | – | > 100 | – | > 100 | – | > 100 | – | > 100 | – | > 100 | – | 58.7 | – | > 100 |
| COC(=O)CCC(=O)Nc1cccc(C(F)(F)F)c1 | – | > 100 | – | > 100 | – | > 100 | – | > 100 | – | > 100 | – | > 100 | – | > 100 | – | > 100 | – | > 100 | – | > 100 |
| COc1ccc2c3c(ccc2c1)NC(C(=O)O)CC3 (centres undefined) | – | > 100 | – | > 100 | – | > 100 | – | > 100 | – | > 100 | – | > 100 | – | > 100 | – | > 100 | – | > 100 | – | > 100 |
| O=C(/C=C/c1ccc[nH]1)c1ccccc1 | – | > 100 | – | > 100 | – | > 100 | – | > 100 | – | > 100 | – | > 100 | – | > 100 | – | > 100 | – | > 100 | – | > 100 |
| CC(C)COC(=O)N1N=NC2C3CC(=O)C(O3)C21 (centres undefined) | – | > 100 | – | > 100 | – | > 100 | – | > 100 | – | > 100 | – | > 100 | – | > 100 | – | > 100 | – | > 100 | – | > 100 |
| C=CC1CC12C(=O)C1OC2(C)C2C(=O)c3c(O)cccc3C(=O)C12 (centres undefined) | 70 | > 100 | 38.1 | > 100 | 29.6 | 90.7 | 54.9 | > 100 | 39.8 | > 100 | 30.5 | > 100 | 29.1 | > 100 | 39.7 | > 100 | 33.3 | > 100 | > 100 | > 100 |
| COc1ccc(C(=O)OC2C(OC3C(O)COC(O[C@H]4C[C@H]5[C@@H]6CC=C7C[C@@H](O)CC[C@]7(C)[C@H]6CC[C@]5(C)[C@H]4[C@H](C)C(=O)CCC(C)C)C3OC(=O)C(C)C)OCC(O)C2O)cc1 (some centres undefined) | 0.0224 | 4.58 | 0.0107 | 3.25 | 0.0127 | 0.516 | 0.00812 | 0.0389 | 0.0306 | 0.273 | 0.0195 | 3.33 | 0.011 | 0.0612 | 0.411 | 6.24 | 0.0342 | 0.114 | 0.0115 | 0.067 |
| C=C(c1ccc(OC)c(/C=C/C(=O)c2cc(OC)c(OC)c(OC)c2)c1)c1cc(OC)c(OC)c(OC)c1 | 1.81 | 4.51 | 0.609 | 1.9 | 0.922 | 10.7 | 1.59 | 4.43 | 1.1 | 5.63 | 1.46 | 3.83 | 1.52 | 3.45 | 2.59 | 7.9 | 1.63 | 5.11 | 1.07 | 2.34 |
| COc1ccc(-c2cnc(SCC(=O)c3c(C)n(C)n(-c4ccccc4)c3=O)n2-c2ccc(OC)cc2)cc1 | > 50 | > 50 | 20.3 | > 50 | 33.2 | > 50 | 35.2 | > 50 | > 50 | > 50 | > 50 | > 50 | > 50 | > 50 | > 50 | > 50 | > 50 | > 50 | > 50 | > 50 |
